As a reminder, the IC50 is the point on the concentration scale where inhibition reaches its midpoint.

The source of these data is paper PMC6471621, “Evaluation of the Anti-Trypanosomal Activity of Vietnamese Essential Oils, with Emphasis on Curcuma longa L. and Its Components” (Molecules, 2019).

Molecules are shown by their SMILES. In brackets after ≈: the same amount, converted by molar mass. Read-outs that look alike come from different tables or passages of the source.

The test system of data set [1] is CHO, WI38, Balb/3T3 fibroblast, and J774. Details: method as in PMID 24269775, PMID 27529211, PMID 16557466. Particulars: cited from earlier work.
A further data set concerns Tbb bloodstream form. Particulars: cited from earlier work.
The test system of another data set is Trypanosoma brucei. Particulars: read-out: Anti-trypanosomal IC50; cited from earlier work.
Data set [2] is described as follows: Cytotoxicity assay (MTT) on WI38. It counts as cell-based. To be noted: human. How it is done:
(§1) The human non-cancer fibroblast cell line WI38 (ATCC Number CCL-75 – Standards, UK) and macrophage-like murine cell line J774 (ECACC Number 91051511 – Public Health England, UK) were grown in DMEM and RPMI medium (Gibco-Thermo Fisher Scientific, Merelbeke, Belgium or Sigma-Aldrich, Bornem, Belgium), respectively, supplemented with 10% fetal bovine serum and penicillin-streptomycin (100 UI/mL) (Sigma-Aldrich, Bornem, Belgium).
(§2) The cytotoxicity assays were performed as described previously with concentrations ranging from 50 to 1.40 nL/mL (dilution of 1.67). The selectivity index (SI) values were calculated using the formula:SI = IC50 on mammalian cells/IC50 on protozoan parasites

Data set [3] deals with Trypanosoma brucei brucei (Tbb, strain 427) bloodstream form. In words: Anti-trypanosomal assay (alamar blue, 72 h) on Tbb bloodstream form. It counts as cell-based. Particulars: for IC50: Trypanosoma brucei, Tbb bloodstream form. On the procedure: Trypanosoma brucei brucei, although not infecting humans because of its susceptibility to the innate immune system, has been used as a good predictive model in a first screening for the identification of anti-trypanosomal compounds [52, 53]. Bloodstream forms of this parasite (Tbb, strain 427) were grown in HMI-9 medium (IMDM-Gibco-Thermo Fisher Scientific, Merelbeke, Belgium-supplemented with 10% heat-inactivated fetal bovine serum (Sigma-Aldrich, Bornem, Belgium) and bloodstream form supporting factors).
The assay was performed in 96-well plates as previously described. The primary screening was repeated two times in triplicate at the concentrations of 50 nL/mL and 25 nL/mL (for 33 EOs) or 10 nL/mL and 5 nL/mL (for 4 EOs). Fifty µL of parasite culture (5 x 10^4 parasites/mL) was added with 50 µL of diluted EOs in each well. Ten µL of alamar blue (diluted with PBS at the ratio 1:1) was added to each well after 72 h of incubation and the plates were further incubated for 4 h. The fluorescence of the reduced reagent was measured on a spectrophotometer at 530 nm excitation and 590 nm emission wavelengths. Suramin was used as positive control. The EOs that inhibited more than 50% of the parasite growth at 25 or 10 nL/mL were analyzed for IC50 determination. Samples were tested in eight serial three-fold dilutions ranging from 50–0.02 nL/mL, except Cinnamomum cassia EO, Curcuma zedoaria EO, and Zingiber zerumbet EO (ranging from 10–0.005 nL/mL) and Dysphania ambrosioides EO (ranging from 5–0.002 nL/mL) in duplicate. IC50 values were calculated from dose response growth inhibition curves using Microsoft Excel files and mean IC50 values were obtained from at least three repetitions.
Background: The colour change of resazurin is a common sign of viable cells or microbes.

Data set [4] is described as follows: Cytotoxicity assay (MTT) on J774. It counts as cell-based, murine. To be noted: mouse. How it is done:
as §1, §2

The subject of data set [5] is different human cancer cells. To be noted: cited from earlier work.
Setting [6] is: WI38 human non-cancer fibroblast cells, pure compounds of C. longa EO, read-out: Cytotoxicity (IC50) WI38.
[7] abbreviates: in Curcuma longa, pure compounds of C. longa EO, read-out: Anti-Trypanosomal Activity (IC50).
[8] abbreviates: J774 macrophage-like murine cells, pure compounds of C. longa EO, read-out: Cytotoxicity (IC50) J774.
Setting [9] is: highest tested concentration 50 µg/mL.

For `C=CC(C)(O)CCC=C(C)C` (stereo not drawn) [linalool], the “Cytotoxicity at the highest tested concentration” value in data set [1] (highest tested concentration 100 µg/mL) is recorded as “did not show any cytotoxicity”. Further, the “Anti-trypanosomal IC50” value in the data set with Tbb bloodstream form (Tbb bloodstream form, ref 30) is 2.5 mg/L.

In the case of `COc1cc(/C=C/C(O)=C/C(=O)/C=C/c2ccc(O)cc2)ccc1O` [demethoxycurcumin], the 50% inhibitory concentration (IC50) in the data set on Trypanosoma brucei was 7.19 ± 1.02 µM.

In the case of `C=C1C=CC(C(C)CC(=O)C=C(C)C)CC1` (stereo not drawn) [Curlone], the IC50 in data set [2] (setting [6]) was 43.6 ± 2.45 mg/L (≈ 200 µM); in data set [3] (setting [7]), 1.38 ± 0.52 mg/L; in data set [3] (read-out: Anti-trypanosomal IC50) it was 6.32 µM; in data set [4] (setting [8]) it was 25.1 ± 3.47 mg/L (≈ 115 µM). In data set [3] (compared to cytotoxicity on mammalian cells (WI38 and J774)), the “SI compared to cytotoxicity” value is recorded as more than 10.

Turning to `CC(C)=CC(=O)CC(C)c1ccc(C)cc1` (stereo not drawn) [ar-Turmerone], the IC50 was 43.4 ± 3.89 mg/L (≈ 201 µM) in data set [2], 28.8 ± 3.93 mg/L in data set [3] (setting [7]) and 44.6 ± 1.41 mg/L (≈ 206 µM) in data set [4]. In addition, in data set [5] (at 40, 80, and 120 µg/mL), the “Apoptotic effects (release of mitochondrial cytochrome c, activation of capase-3)” value is “apoptotic effects”.

Turning to `CC(C)=CCC[C@@H](C)CC=O` [citronellal], the “Cytotoxicity at the highest tested concentration” value in data set [1] (setting [9]) is listed as “did not show any cytotoxicity”. In addition, the “Anti-trypanosomal IC50” value in the data set on Tbb bloodstream form (Tbb bloodstream form, ref 28) was 2.76 ± 1.55 mg/L.

For the molecule `CC(C)=C1C/C=C(\C)CC/C=C(\C)CC1=O` [Germacrone], the “Anti-trypanosomal IC50” value in the data set on Tbb bloodstream form (Tbb bloodstream form, ref 32) was more than 100 mg/L.

`CC12CCC(CC1)C(C)(C)O2` [eucalyptol]: the “Anti-trypanosomal IC50” value with Tbb bloodstream form (Tbb) is 83.15 mg/L.

`CC[C@@]1(O)C(=O)OCc2c1cc1n(c2=O)Cc2cc3ccccc3nc2-1` [Camptothecin, reference compound]: the IC50 in data set [2] (WI38 human non-cancer fibroblast cells, positive control, read-out: Cytotoxicity (IC50) WI38) worked out at 0.035 ± 0.00963 mg/L (≈ 0.1 µM); in data set [4] (J774 macrophage-like murine cells, positive control, read-out: Cytotoxicity (IC50) J774) it was 0.00732 ± 0.00129 mg/L (≈ 0.021 µM).

On to `O=C(/C=C/c1ccc(O)cc1)CC(=O)/C=C/c1ccc(O)cc1` [bisdemethoxycurcumin], for which, in the data set with Trypanosoma brucei, the IC50 is 9.84 ± 0.84 µM.

`COc1cc(/C=C/C(=O)CC(=O)/C=C/c2ccc(O)c(OC)c2)ccc1O` [curcumin]: the IC50 in the data set with Trypanosoma brucei is approximately 5 µM.

As for `C=C1C2CCC(C2)C1(C)C` (stereo not drawn) [camphene], the “Anti-trypanosomal IC50” value in the data set on Tbb bloodstream form (Tbb bloodstream form, ref 41) was 80.66 ± 0.87 mg/L.

For `C=C1C=CC(C(C)CCC=C(C)C)CC1` (stereo not drawn) [β-Sesquiphellandrene], the half-inhibitory concentration (IC50) in data set [2] (setting [6]) was found to be 19.1 ± 1.58 mg/L (≈ 93.5 µM); in data set [3] (setting [7]), 9.89 ± 1.18 mg/L; in data set [4] (setting [8]) it was 21 ± 2.72 mg/L (≈ 103 µM). For the same molecule, the “Apoptotic effects (release of mitochondrial cytochrome c, activation of capase-3)” value in data set [5] (at 5.10 µg/mL) was “apoptotic effects”.

For `CC(C)=CCCC(C)c1ccc(C)cc1` (stereo not drawn) [ar-Curcumene], the IC50 in data set [2] (setting [6]) was determined as 23.1 ± 1.36 mg/L (≈ 114 µM); in data set [3] (setting [7]), 13.4 ± 2.46 mg/L; in data set [4] (setting [8]), 24 ± 2.64 mg/L (≈ 119 µM).

For the molecule `CC(C)=CCCC(C)CCO` (stereo not drawn) [citronellol], the “Cytotoxicity at the highest tested concentration” value in data set [1] (setting [9]) is “did not show any cytotoxicity”. Also, the “Anti-trypanosomal IC50” value with Tbb bloodstream form (Tbb bloodstream form, ref 28) is 6.45 ± 4.86 mg/L.

In the case of `Cc1ccc(C(=O)Nc2ccc(S(=O)(=O)O)c3cc(S(=O)(=O)O)cc(S(=O)(=O)O)c23)cc1NC(=O)c1cccc(NC(=O)Nc2cccc(C(=O)Nc3cc(C(=O)Nc4ccc(S(=O)(=O)O)c5cc(S(=O)(=O)O)cc(S(=O)(=O)O)c45)ccc3C)c2)c1` [Suramin, reference compound], the IC50 in data set [3] (positive control, read-out: Anti-Trypanosomal Activity (IC50)) was 0.0215 ± 0.00262 mg/L.

For `C=C(C)[C@H]1CC=C(C)CC1` [limonene], the “Anti-trypanosomal IC50” value in the data set on Tbb bloodstream form (Tbb bloodstream form, ref 28) was 4.24 ± 1.27 mg/L; in the data set on Tbb bloodstream form (Tbb bloodstream form, ref 29) it was 5.6 ± 1.6 mg/L.
